How the values were obtained:
Human ESCs [SHEF3] [1] = test: Differentiation towards definitive endoderm: immunostaining and RT-PCR of endodermal markers; format: cell-based; conditions: 2 μM, feeder-free on Matrigel in mTeSR1, up to 7 days
Procedure: Human ESCs [SHEF3] were maintained feeder-free on Matrigel® in chemically defined mTeSR1® media and treated with 2 μM 1M for the days indicated. (A) Expression of the endodermal markers FoxA2, Sox17 and HNF4α were analysed by immunofluorescence. Treatment with compound 1M led to expression of all markers after 7 days treatment. Scale bar represents 50 μm. (B) ESCs were harvested on day 7 following treatment with 1M for the indicated days. RNA was extracted and RT-PCR analyses performed using primers selective for the genes indicated. […] (C) BIO induces differentiation towards the DE. SHEF3 ESCs were treated with 2 μM BIO for the times indicated and immunostained with antibodies towards the endodermal markers FOXA2, SOX17 and HNF4α. (D) Compound 1L also induces differentiation towards the DE. SHEF1 ESCs were treated with 2 μM 1L for the times indicated and immunostained with antibodies towards the endodermal markers FOXA2 and HNF4α.
ESCs were cultured feeder-free on Matrigel®-coated plates in mTeSR1® media, supplemented with 2 μM compound 1M for 7 days with the media being refreshed every-other day. Definitive endoderm cultures were passaged with collagenase (1 mg/ml) and plated at a ratio of 1:10 on Matrigel® in KO DMEM supplemented with glutamine, penicillin/streptomycin, NEAA, 2% (v/v) KOSR, 10 ng/ml HGF (Peprotech) and 10 ng/ml FGF4 and cultured for a further 7 days with the media being refreshed every-other day. To allow for maturation of the HLCs, 10 ng/ml oncostatin M (Peprotech) and 10^−7 dexamethasone (SIGMA) were added to the above media and the cells were cultured for an additional 7 days with fresh media every-other day.
(§1) Total RNA was isolated and purified using TRIzol Reagent (Invitrogen), following the manufacturer's instructions. All RNA samples were treated with DNase I (Ambion) before cDNA synthesis to eliminate any contaminating genomic DNA. RNA (1 μg) was reverse transcribed into cDNA using Oligo(dT)15 (Promega) and SuperScript II (Invitrogen). Gene-specific PCR was carried out using primers and annealing temperatures outlined in Table 2.
ESCs were cultured on Matrigel®-coated lummox (Greiner Bio One) trays and fixed with 4% paraformaldehyde (PFA) for 20 minutes at room temperature. Cells were permeabilised in PBST (with 0.1% Triton X-100) and blocked in 10% blocking reagent (Roche) before incubating with primary antibodies in 2% blocking reagent overnight at 4° C. After washing in PBS, cells were incubated with FITC-conjugated secondary antibodies (Vector Labs) for 3 hours at room temperature. After further washing, the cells were stained with 4,6-diamidino-2-phenylindole (DAPI) (SIGMA), washed again and mounted in MOWIOL. […]

Human ESCs [SHEF3] [2] = test: Colony morphology, RT-PCR and Western blot of OCT4/NANOG in treated human ESCs; format: cell-based
Procedure: (§2) Human ESCs [SHEF3] were treated with the indicated concentrations of BIO or compound 1M or left untreated as a control and cultured for 7 days. (A) Images show typical colonies formed following the indicated treatments. The scale bars represent 1 mm. (B) Histogram plots of ESCs analysed by flow cytometry following immunostaining with antibodies against the pluripotency markers Tra-1-60 or SSEA4. (C) RNA was extracted from the cells and RT-PCR analyses performed using primers specific to the pluripotency genes OCT4 and NANOG and to the house-keeping gene β-ACTIN. (D) Western blot analysis was performed on protein extracted from the cells and immunoblotted with antibodies specific to Oct4. Blots were stripped and reprobed with anti-Gapdh antibodies to assess equal loading. (E) Compound 1O also induces differentiation of human ESCs. SHEF3 cells were treated with the indicated concentration of 1O for 7 days. Images show typical colony morphology. (F) Histogram plots of ESCs analysed by flow cytometry following staining with Tra-1-60 and SSEA4 antibodies. Analysis of percent positive cells and mean fluorescent intensity are indicated on the plots. (G) RT PCR analysis for the expression of OCT4 and NANOG. Bands for each of the genes were from the same gel with intervening samples removed. (H) Western blot analysis of OCT4 protein expression. Proteins bands were from the same immunoblot with intervening samples removed.
(§3) SHEF1 and SHEF3 human ESCs were obtained from the UKSCB and cultured as outlined in their protocols. Briefly, ESCs were maintained on mitomycin C-inactivated mouse embryonic fibroblast (MEF) feeder layers in KnockOut Dulbecco's modified Eagle's medium (KO DMEM) (Invitrogen) supplemented with 20% (vol/vol) KO serum replacement (KOSR; Invitrogen), 1 mM non-essential amino acids (NEAA; Invitrogen), 1 mM glutamine (Invitrogen), 0.1 mM 2-mercaptoethanol (BioRad), penicillin/streptomycin, and 4 ng/ml recombinant human FGF2 (Peprotech). Cultures were passage using 1 mg/ml collagenase at a ratio of 1:8 to 1:12 every 7 days. Cultures were transferred to a feeder-free, chemically defined culture system on ESC-qualified Matrigel® (BD) coated plates in mTeSR1® (Stem Cell Technologies) media according to Stem Cell Technologies' protocol.
as §1
Cell lysates (20 μg) were prepared, separated by SDS-PAGE and transferred to nitrocellulose as described previously (Welham et al., 1994). Immunoblotting was carried out using primary antibodies at the following dilutions: 1:5,000 anti-Oct4 (Santa Cruz Biotechnology; sc-9081); 1:2000 anti-GAPDH (sc-20357); 1:10,000 anti-phospho (Ser33/37/Thr41) β-catenin (Cell signalling Technology; CST 9561); 1:1000 anti-β-catenin (CST 9562). Anti-rabbit antibodies conjugated to horseradish peroxidise (DAKO) were used at 1:10,000 and blots were developed using ECL Advance (GE Healthcare) or ChemiGlow (Alpha Innotech) according to manufacturer's directions. Images were captured and analysed using the ImageQuant RT ECL system (GE Healthcare). Blots were stripped and reprobed as described previously (Welham et al., 1994).

Human ESCs [SHEF3] [3] = test: Flow cytometry of pluripotency surface markers Tra-1-60 and SSEA4 in treated human ESCs; format: cell-based
Procedure: as §2, with “(A)” for “Human ESCs [SHEF3] were treated with the indicated concentrations of BIO or compound 1M or left untreated as a control and cultured for 7 days. (A)”, “(E) Compound 1O also induces differentiation of human ESCs.” left out
as §3
ESCs were trypsinised (0.05% Trypsin-EDTA) for 10 minutes at 37° C. and resuspended in PBS containing 2% (v/v) FBS (FBS/PBS). […] Cells were washed and stained with secondary fluorescein isothiocyanate (FITC)-conjugated antibodies (SIGMA) for a further 30 minutes, if required. Flow cytometry was performed using a FACSCanto cytometer (Becton Dickenson) and the data were analysed with FACSDiva software. Dead cells were excluded for analyses based on forward and side scatter parameters.

ESCs [SHEF1] [4] = test: RT-PCR of Activin/Nodal pathway and differentiation marker genes; format: cell-based, human; conditions: 10 μM with 2 μM 1M
Procedure: (§4) (A) RNA was extracted from ESCs [SHEF1] cultured for 7 days in the presence of 2 μM 1M for the days indicated. RT-PCR analyses were performed using primers selective for the genes indicated. (B) ESCs [SHEF1] were treated with 2 μM 1M alone or in combination with 10 μM SB43125 (S) for the days indicated and RT-PCR performed on the extracted RNA. (C) ESCs [SHEF3] were treated with 1M alone or in combination with 100 ng/ml Activin A (A) for the days indicated and RT-PCR performed. (D). ESCs [SHEF1] were treated with 2 μM 1M, or 100 ng/ml ActivinA (A) alone or in combination with 1M for 5 days. Expression of the endoderm markers FoxA2 and HNF4α was analysed by immunofluorescence. The number of percent positive cells averaged from 3 fields of view +/−SD are indicated. Scale bar represents 50 μm. (E) ESCs [SHEF1] were treated with 2 μM 1M, or 100 ng/ml ActivinA (A) alone or in combination with 1M for 5 days. Expression of the DE marker CXCR4 was alaysed by flow cytometry.
as §1

ESCs = test: as above; format: cell-based, human; conditions: 100 ng/ml Activin A with 1M, 7 days, SHEF3
Procedure: as §4, §1

ESCs [SHEF1] [5] = test: Immunofluorescence of endoderm markers FoxA2 and HNF4α, percent positive cells; format: cell-based, human; conditions: 5 days
Procedure: as §4
ESCs were cultured on Matrigel®-coated lummox (Greiner Bio One) trays and fixed with 4% paraformaldehyde (PFA) for 20 minutes at room temperature. Cells were permeabilised in PBST (with 0.1% Triton X-100) and blocked in 10% blocking reagent (Roche) before incubating with primary antibodies in 2% blocking reagent overnight at 4° C. After washing in PBS, cells were incubated with FITC-conjugated secondary antibodies (Vector Labs) for 3 hours at room temperature. After further washing, the cells were stained with 4,6-diamidino-2-phenylindole (DAPI) (SIGMA), washed again and mounted in MOWIOL. The following antibodies and dilutions were used: goat-anti-FoxA2 (1:100, R&D. Systems), mouse anti-Sox17 (1:50, R&D Systems), rabbit anti-HNF4α (1:100, Santa Cruz), rabbit anti-AFP (1:100, DAKO), rabbit anti-TTR (1:100, DAKO). Images were captured on a Zeiss 510 Meta confocal microscope using a 40× objective.

ESCs [SHEF1] [6] = test: Flow cytometry of the DE marker CXCR4; format: cell-based, human; conditions: 2 μM 1M, 100 ng/ml Activin A, alone or in combination, 5 days
Procedure: as §4
ESCs were trypsinised (0.05% Trypsin-EDTA) for 10 minutes at 37° C. and resuspended in PBS containing 2% (v/v) FBS (FBS/PBS). […] Flow cytometry was performed using a FACSCanto cytometer (Becton Dickenson) and the data were analysed with FACSDiva software. […]

[7] = MEF culture, concentration 0.5, 7 days
[8] = MEF culture, concentration 2, 7 days
[9] = mTeSR1, concentration 0.5, 7 days
[10] = mTeSR1, concentration 2, 7 days
[11] = 100 ng/ml Activin A with 2 μM 1M

O=C1NC(=O)C2=C1c1cn(c3ccccc13)CCOCCOCCOCCn1cc2c2ccccc21 [1L]
Differentiation towards the DE (immunostaining FOXA2, SOX17, HNF4α) (Human ESCs [SHEF3] [1]): induced differentiation towards the DE

O=C1NC(=O)C2=C1c1cn(c3ccccc13)CCCCC(O)CCCCn1cc2c2ccccc21 [1O]
OCT4 and NANOG gene expression (RT-PCR) (Human ESCs [SHEF3] [2]; 7 days treatment): loss of OCT4 and NANOG gene expression
Oct4 protein expression (Western blot) (Human ESCs [SHEF3] [2]; 7 days treatment): loss of OCT4 protein expression
Proliferation and differentiation of human ESCs (colony morphology) (Human ESCs [SHEF3] [2]; 7 days, on MEFs in KO DMEM or on Matrigel in mTeSR1, 1M at 2 μM): induced similar differentiation
Expression of pluripotency markers Tra-1-60 and SSEA4 by flow cytometry (in words) (Human ESCs [SHEF3] [3]; 7 days treatment): decreased expression of Tra-1-60 and SSEA4

O=C1Nc2cc(Br)ccc2/C1=C1/Nc2ccccc2/C1=N\O [BIO, reference compound]
Differentiation towards the DE (immunostaining FOXA2, SOX17, HNF4α) (Human ESCs [SHEF3] [1]): induced differentiation towards the DE
Tra1-60 % pos (Human ESCs [SHEF3] [3]; MEF culture, concentration 0.5 (unit not given), 7 days): 82.2%
SSEA4 % pos (Human ESCs [SHEF3] [3]; [7]): 91.3%
SSEA4 mean (mean fluorescence intensity) (Human ESCs [SHEF3] [3]; [7]): 6002
Tra1-60 mean (mean fluorescence intensity) (Human ESCs [SHEF3] [3]; [7]): 9497
Tra1-60 % pos (Human ESCs [SHEF3] [3]; MEF culture, concentration 2 (unit not given), 7 days): 75.1%
SSEA4 % pos (Human ESCs [SHEF3] [3]; [8]): 83.3%
SSEA4 mean (mean fluorescence intensity) (Human ESCs [SHEF3] [3]; [8]): 4006
Tra1-60 mean (mean fluorescence intensity) (Human ESCs [SHEF3] [3]; [8]): 7441
Tra1-60 % pos (Human ESCs [SHEF3] [3]; mTeSR1 (feeder-free, Matrigel), concentration 0.5, 7 days): 73.7%
Tra1-60 % pos (Human ESCs [SHEF3] [3]; mTeSR1 (feeder-free, Matrigel), concentration 2, 7 days): 40.5%
SSEA4 % pos (Human ESCs [SHEF3] [3]; [9]): 69.2%
SSEA4 mean (mean fluorescence intensity) (Human ESCs [SHEF3] [3]; [9]): 5871
Tra1-60 mean (mean fluorescence intensity) (Human ESCs [SHEF3] [3]; [9]): 8194
SSEA4 % pos (Human ESCs [SHEF3] [3]; [10]): 72.5%
SSEA4 mean (mean fluorescence intensity) (Human ESCs [SHEF3] [3]; [10]): 1410
Tra1-60 mean (mean fluorescence intensity) (Human ESCs [SHEF3] [3]; [10]): 890

NC(=O)c1ccc(-c2nc(-c3ccccn3)c(-c3ccc4c(c3)OCO4)[nH]2)cc1 [SB43125, reference compound]
Effect on 1M-induced GSC and FOXA2 expression (ESCs [SHEF1] [4]): dramatically reduced
Inhibition of 1M-induced NODAL expression (ESCs [SHEF1] [4]): only partially inhibited

B1: Activin A: member of the TGFβ superfamily which binds to the same receptors as Nodal, used to mimic Nodal activity in vitro (protein, UniProt P08476 311-426, looked up)
Inhibin beta A chain: GLECDGKVNICCKKQFFVSFKDIGWNDWIIAPSGYHANYCEGECPSHIAGTSGSSLSFHSTVINHYRMRGHSPFANLKSCCVPTKLRPMSMLYYDDGQNIIKKDIQNMIVEECGCS
modifications: Inhibin beta A chain homodimer
1M-induced expression of AFP in the presence of Activin A (ESCs): lost
Effect of Activin A on generation of 1M-induced HNF4α expressing cells (ESCs [SHEF1] [5]; [11]): inhibit generation of 1M-induced HNF4α expressing cells
Effect of addition of Activin A on 1M-induced FoxA2 expression (ESCs [SHEF1] [5]; [11]): did not further enhance
FOXA2 expressing cells in the entire population (ESCs [SHEF1] [5]; 2 μM 1M or 100 ng/ml Activin A): 8%
HNF4α-expressing cells (ESCs [SHEF1] [5]; 2 μM 1M or 100 ng/ml Activin A): 3%
CXCR4 expression by flow cytometry (ESCs [SHEF1] [6]): 26.5%
